US6806291B1, “Analgesic compounds, their synthesis and pharmaceutical compositions containing them” (The Foundation for the LSU Health Sciences Center, priority 2003, dated 2004)

How the values were obtained:
[1] = test system: Complete Freund's Adjuvant (CFA)-induced thermal hyperalgesia; assay: CFA-induced thermal hyperalgesia (paw withdrawal latency, Hargreaves); assay type: in vivo, male CD-1 mice; details: 2.5 mmol/kg by oral gavage at 48 hours post-CFA; latency measured 30 minutes to 6 hour after drug; ANOVA drug effect p=0.014
Method: To determine whether the SCP-M series has analgesic activity, its effect on Complete Freund's Adjuvant (CFA)—induced thermal hyperalgesia was accessed. Under halothane anesthesia, male CD-1 mice were injected with 0.1 ml of CFA (Calbiochem, USA) to the glabrous surface of one hind paw. When injected into the footpad, CFA produces localized inflammation and hyperalgesia that appears within two hours and is present for 7 to 10 days (Iadorola, et al., 1988). At 48-hours post-CFA (time of peak hyperalgesia), each mouse received by oral gavage 2.5 mmol/kg of SCP-M1 or vehicle. The latency to withdraw the paw from a thermal stimulus (Hargreaves, et al., 1988) was measured using an analgesiometer (IITC Life Sciences, Inc., Woodland Hills, Calif.) according to the technique of Hargreaves, et al. The stimulus intensity was set to produce baseline latencies of about 10-15 seconds, and a 20 second maximum latency was used. Thermal hyperalgesia was measured before drug administration (pre-drug baseline), and again at 30 minutes, 1 hour, 2 hour, 3 hour, 4 hour, 5 hour, and 6 hour after drug administration.
No other statistically significant effects were found (time effect: F(6,90)=0.486, p=0.817; drugxtime interaction: F(6,90)=0.634, p=0.793). The effects of SCP-M1 on CFA-induced thermal hyperalgesia are shown as a percentage of pre-drug baseline in FIG. 1.

[2] = test system: FAS-ligand
Method: (§1) The hepatotoxic effects of SCP-M1 were evaluated in human hepatocytes (HEPG-2) and in human primary cultures of normal liver cells. […] Phase contrast, microscopy, Trypan blue exclusion, Hoechst staining, and FAS-ligand and CAR (constitutive androstane receptor) induction were used as criteria. […] HEPG-2 cells were grown and maintained in EMEM medium containing NEAA (nonessential amino acids), supplemented with 10% fetal bovine serum (FBS), and incubated at 37° C. with a constant supply of 5% CO2. Primary human liver cells were grown in HCM medium (Walkersville, Md.), and maintained in HMM medium (Walkersville, Md.) at 37° C. with 5% CO2. 80% confluent cultures of HEPG2 and primary hepatocytes growing in 6- and 24-well plates, respectively were held 6-8 hr in serum-free medium (EMEM, 0.5% FBS for HEPG2 and HMM [Clonetics, Walkersville, Md.] for primary hepatocytes) before the addition of analgesics.
(§2) The up-regulation of FAS-ligand (FAS-L) and activation of CAR (constitutive androstane receptor) were analyzed by Western blot. Briefly, the cell extracts were made, and adjusted for protein concentrations by the Bio-rad method. About 15-20 μg protein were loaded onto an 8-16% gel (Bio-rad), and electrophoresis was conducted for 2 hr at 120 V. The proteins were transferred onto nitrocellulose membrane at 30 V for 60 min at 4° C.

[3] = test system: CAR (constitutive androstane receptor)
Method: as §1, §2

[4] = test system: human hepatocytes (HEPG-2)
Method: as §1

[5] = test system: human hepatocytes in primary cultures; assay: Hepatotoxic effect in primary human hepatocytes, Trypan blue exclusion and Hoechst staining; assay type: cell-based
Method: […]. […] […].
Hoechst staining was employed for detection of apoptosis. […] 45 min.

Structure (SMILES): O=C(CNS(=O)(=O)c1ccccc1C(=O)O)Nc1ccc(O)cc1 [SCP-M1, 2-{[(4-hydroxyphenyl)carbamoyl]methylsulfamoyl}benzoic acid]
- analgesic effect on CFA-induced thermal hyperalgesia vs vehicle treated controls [1]: significant analgesic effect
- pro-apoptotic FAS-ligand up-regulation [2]: reduced effects
- CAR activation [3]: reduced effects
- apoptotic cell death by Hoechst staining [4]: practically ineffective in inducing cell death
- apoptosis by Trypan blue exclusion and Hoechst staining ([5]; human): enhanced apoptosis was caused by acetaminophen but not SCP-M1

Structure (SMILES): CC(=O)Nc1ccc(O)cc1 [acetaminophen, reference compound]
- apoptosis by Trypan blue exclusion and Hoechst staining ([5]; human hepatocytes in primary cultures, treated 6-8 hr at 37° C.): enhanced apoptosis
